# Like-named read-outs stand apart in the source and are kept apart here.
# Key:
# VIM = target: T1, VIM (Homo sapiens, UniProt P08670); test: Western blotting / immunofluorescence of VIM protein status in FOXC2-HMLER cells; assay type: cell-based
# T1 construct: endogenous in cells; host or cells: FOXC2-HMLER
# Description: Western blotting was performed essentially as described previously (M. J. Bollong et al. ACS Chem. Biol. 10 (2015) 2193-2198). Cells were collected by brief trypsinization and centrifugation at 500 g for 5 minutes. Cells were lysed by the addition of RIPA buffer with protease and phosphatase inhibitors (Roche). Lysates were incubated on ice for 30 minutes before eliminating insoluble protein content by centrifugation at 12,000 g for 5 minutes at 4° C. Protein concentrations were determined from absorbance values obtained by a Nanodrop instrument. Equal amounts of protein were then mixed with 2× loading buffer (100 mM TRIS-HCl, 1% SDS, 10% glycerol, 0.1% bromophenol blue 10%-mercaptoethanol) and exposed to 95° C. for 5 minutes. Protein was separated by SDS-PAGE using 4-12% Bis-Tris Gels (Invitrogen) and then transferred to PVDF membranes (Invitrogen) using semi-dry transfer. Membranes were blocked for 1 hour at room temperature in 5% non-fat dry milk in TBST (Tris buffered saline with 0.1% Tween 20). Membranes were incubated overnight with primary antibodies in blocking buffer overnight at the dilutions ranging from 1:500 to 1:2000. After 3 washes with TBST, membranes were then exposed to HRP-conjugated secondary antibodies (1:5000 in blocking buffer, Sigma) for one hour followed by one hour of additional washing with TBST. Relative protein content was visualized using film and SuperSignal West Dura Substrate. For VIM degradation blots, 20-60 μg of protein content was loaded per gel lane and the anti-VIM antibody V9 (ab8069) was used to blot for VIM protein content. Phospho-protein blots were performed as above with the exception that primary antibodies were incubated in 5% bovine serum albumin in TBST instead of milk.
# We performed Western blotting analysis of FOXC2-HMLER cells treated for 24 hours with Compound 1 with commercially available antibodies targeting specific phosphorylated VIM species (P-S39, P-S56, P-S83).
# In contrast, only a small fraction of cells undergoing mitosis stained positive for P-S56-VIM in DMSO-treated controls, consistent with previous reports identifying phosphorylation at S56 as a modification catalyzed by cyclin dependent kinase 1 (CDK1; FIG. 6) (T. Yamaguchi, T. et al., J. Cell Biol. 171 (2005) 431-436.
# [1] = test system: STS cell lines (HT 1080, SW684, RD, GCT, SW872, SW982); test: Anti-proliferative activity against soft tissue sarcoma cell line panel; assay type: cell-based
# Excerpt: The propagation conditions and generation of FOXC2-HMLER, HMLER, SNAIL-HMLER, SNAIL-HMLE, and SUM159 cells have been described previously (Mani (2008)). MCF-7, HepG2, HCT116, and MDA-MB-231 cells were from ATCC and maintained in DMEM medium (Corning) supplemented with 10% FBS (Corning) with Anti-anti (Gibco). The soft tissue sarcoma cell line panel was purchased from ATCC (TCP-1019) and maintained in the recommended medium for each cell type. HUVEC cells (pooled donor) were maintained in EBM-2 medium (both from Lonza Walkersville). Primary human lung fibroblasts were maintained in Fibroblast Medium (both from Sciencell Research Laboratories). For cell growth experiments, HLFs were grown in DMEM supplemented with 2% FBS and Anti-anti. For all experiments, primary human cells were used at a passage no greater than 4.
# For high throughput screening, FOXC2-HMLER and HMLER cells were plated at 10^3 cells per well in white 384-well plates in 50 μL of MEGM medium (Lonza). Cells were allowed to attach for one hour before compound was transferred to each well as a DMSO solution using a 100 nL pintool head affixed to a PerkinElmer FX instrument. After 72-hour incubation, 30 μL of a Cell Titer Glo solution (diluted 1:6 in water, Promega) was dispensed into each well and luminance values were recorded using an Envision plate reader. […] Selected hit compounds were reordered from ChemDiv and tested for selective toxicity in 10-point response assays as above. All other miniaturized, selective viability experiments were performed as above using the indicated growth medium.
# The anti-proliferative activity of Compound 1 was assessed against a selection of soft tissue sarcomas (STS), which collectively refers to a broad grouping of over 50 subtypes of connective tissue derived cancers for which targeted therapies are lacking (Zambo (2014)). […]
# A panel of 6 STS cell lines were evaluated, which cell lines included the histological subtypes of fibrosarcoma (HT 1080, SW684), rhabdomyosarcoma (RD), fibrous histiocytoma (GCT), liposarcoma (SW872), and synovial sarcoma (SW982). […]
# [2] = FOXC2-HMLER cells, 24 hours, 500 nM, Western blotting
# [3] = FOXC2-HMLER cells, Western blotting
# T1 sequence (P08670 whole entry): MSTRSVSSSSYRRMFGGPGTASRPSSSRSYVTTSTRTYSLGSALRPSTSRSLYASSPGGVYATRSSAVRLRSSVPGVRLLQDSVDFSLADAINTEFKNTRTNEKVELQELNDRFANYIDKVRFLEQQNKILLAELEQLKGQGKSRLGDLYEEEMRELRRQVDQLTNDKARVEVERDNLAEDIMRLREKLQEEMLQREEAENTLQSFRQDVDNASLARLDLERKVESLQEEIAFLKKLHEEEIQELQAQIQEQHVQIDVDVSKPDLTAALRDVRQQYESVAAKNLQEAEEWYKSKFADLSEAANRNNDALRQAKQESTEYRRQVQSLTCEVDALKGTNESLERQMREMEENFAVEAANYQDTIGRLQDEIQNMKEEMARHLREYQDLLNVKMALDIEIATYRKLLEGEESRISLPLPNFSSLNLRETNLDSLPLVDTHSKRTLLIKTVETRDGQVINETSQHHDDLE
structure (smiles),measurement,setting,value
"Clc1cccc(N2CCN(c3cnnc4c(Cl)cccc34)CC2)c1 [Compound 1, 8-chloro-4-(4-(3-chlorophenyl)piperazin-1-yl)cinnoline]",P-S39- and P-S83-VIM protein content,VIM; [2],modest increase
same,steady state levels of P-S56-VIM,VIM; [2],marked increase
same,dibromobimane-crosslinked dimeric VIM protein content,VIM; [3],dramatically reduced
same,lower molecular weight VIM degradation products,VIM; [3],dose-dependent accumulation
same,P-S56-VIM positive FOXC2-HMLER cells,VIM; immunofluorescent staining,concentration dependent increase
same,IC50,"[1]; Homo sapiens, SW872 liposarcoma cell line, read-out: IC50, SW872 cells",440 nM
same,multinucleation phenotype in STS cell lines,"[1]; all STS cell lines, 24-hour treatment",robust multinucleation phenotype
same,IC50,"[1]; panel of 6 STS cell lines, read-out: IC50 values, growth of all STS cell lines",440 to 1310 nM
